Data: patent EP0045161A1, “Amides of 4-oxo-5-amidohexanoic acid derivatives” (IMPERIAL CHEMICAL INDUSTRIES PLC, priority 1980, dated 1982)

Target: angiotensin converting enzyme (Homo sapiens, UniProt P12821)
Assay: inhibition of angiotensin converting enzyme (cleavage of angiotensin I or a related synthetic peptide by ACE)
Format: biochemical
From the text: ACE is the enzyme which converts angiotensin I to angiotensin II.

Chain of angiotensin converting enzyme (P12821 30-1306, species assumed): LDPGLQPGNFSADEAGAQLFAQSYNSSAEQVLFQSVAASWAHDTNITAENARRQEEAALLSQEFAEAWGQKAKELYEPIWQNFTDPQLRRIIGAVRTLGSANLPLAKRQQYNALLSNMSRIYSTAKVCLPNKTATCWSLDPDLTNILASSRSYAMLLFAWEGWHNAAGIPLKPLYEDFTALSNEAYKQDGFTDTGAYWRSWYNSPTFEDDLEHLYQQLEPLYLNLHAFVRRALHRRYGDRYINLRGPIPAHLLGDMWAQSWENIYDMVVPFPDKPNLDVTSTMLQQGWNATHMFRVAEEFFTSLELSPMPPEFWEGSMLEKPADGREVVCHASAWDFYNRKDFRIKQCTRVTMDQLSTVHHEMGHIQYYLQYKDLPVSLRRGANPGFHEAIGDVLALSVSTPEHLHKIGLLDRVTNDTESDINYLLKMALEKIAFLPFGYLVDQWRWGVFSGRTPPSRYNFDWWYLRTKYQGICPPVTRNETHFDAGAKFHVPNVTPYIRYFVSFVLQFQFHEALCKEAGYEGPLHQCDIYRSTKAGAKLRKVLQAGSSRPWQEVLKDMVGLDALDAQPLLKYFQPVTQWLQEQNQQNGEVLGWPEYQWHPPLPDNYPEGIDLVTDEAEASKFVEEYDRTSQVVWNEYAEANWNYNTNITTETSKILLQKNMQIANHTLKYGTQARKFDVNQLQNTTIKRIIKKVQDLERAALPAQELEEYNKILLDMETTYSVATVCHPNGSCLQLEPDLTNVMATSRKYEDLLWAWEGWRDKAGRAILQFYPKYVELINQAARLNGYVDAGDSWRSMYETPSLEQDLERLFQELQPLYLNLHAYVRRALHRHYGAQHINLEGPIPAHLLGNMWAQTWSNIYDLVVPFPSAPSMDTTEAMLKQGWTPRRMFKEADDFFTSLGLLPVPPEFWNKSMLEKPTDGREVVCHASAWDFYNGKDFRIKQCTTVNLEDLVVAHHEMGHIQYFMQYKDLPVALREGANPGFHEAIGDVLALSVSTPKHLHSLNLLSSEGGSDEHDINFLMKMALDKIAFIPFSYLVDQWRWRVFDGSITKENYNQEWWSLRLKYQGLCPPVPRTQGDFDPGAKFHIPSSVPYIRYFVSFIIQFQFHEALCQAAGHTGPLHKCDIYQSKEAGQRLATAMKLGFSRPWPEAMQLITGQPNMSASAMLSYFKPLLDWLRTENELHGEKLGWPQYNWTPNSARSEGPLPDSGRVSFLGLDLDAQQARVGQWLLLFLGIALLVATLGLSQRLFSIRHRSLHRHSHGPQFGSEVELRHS

**Q.** Which “times more active as an inhibitor of angiotensin converting enzyme” value (relative to the more polar isomer (Compound No. 6B), isomers at the 2-carbon atom of the hexanoyl chain) does the source give for CC(CC(=O)C(Cc1ccccc1)NC(=O)c1ccccc1)C(=O)N1CCC[C@H]1C(=O)OC(C)(C)C (single isomer, unassigned) [Compound No. 6A] here?
**A.** Its value is 10 times.

**Q.** How did the “times more active as an inhibitor or angiotensin converting enzyme” value (relative to the less polar isomer (Compound No. 6D), isomers at the 5-carbon atom of the hexanoyl chain) turn out when CC(CC(=O)C(Cc1ccccc1)NC(=O)c1ccccc1)C(=O)N1CCC[C@H]1C(=O)OC(C)(C)C (single isomer, unassigned) [Compound No. 6C] was run?
**A.** The value was 100 times.
